Experimental data published in patent US20200171056A1, “SULFONYLUREA COMPOUNDS IN THE TREATMENT OF DISEASE ASSOCIATED WITH UV-INDUCED DAMAGE” (CeMM - Forschungszentrum für Molekulare Medizin GmbH, priority 2017, published 2020).

Tests used:
Assay type in all cases: cell-based, human
[1] = tested on: DNA repair knockout HAP1 cell lines; experiment: Percentage of rescue in panel of 20 DNA repair-deficient cell lines after UV
From the text: (§1) FIG. 3. Loss of MUTYH mimics acetohexamide function A. Bubble plot displaying the percentage of rescue, defined as the difference in survival of a given cell line treated with acetohexamide compared to untreated, following UV irradiation. The light grey, dark grey bubbles highlight ΔMUTYH, ΔXPA […], and black bubbles indicate the rest of the knockout cell lines and WT HAP1. The size of the bubbles indicates the significance as log10 (p-value). BER: base excision repair; NER: nucleotide excision repair; DSBR; double-strand break repair; MMR: mis-match repair; FA: Fanconi aneamia; DR; direct reversal; TLS; translesion synthesis. B. Survival of WT and MUTYH-deficient (ΔMUTYH) cells with or without 0.5 mM acetohexamide treatment, followed by UV irradiation, as assessed after 3 days using CellTitre-Glo. Loss of MUTYH protein was confirmed by immunoblotting using an anti-MUTYH antibody. ACTIN was used as a loading control. C. Deletion of MUTYH in WT HAP1 or an XPA-deficient background was confirmed by immunoblotting using an anti-MUTYH antibody. TUBULIN was used as a loading control. D. Clonogenic survival of WT, ΔXPA or ΔXPA-MUTYH cells irradiated with UV at the indicated doses or left untreated. Cells were fixed and stained 10 days later.
Since acetohexamide enhanced the clearance of CPDs in NER-deficient cells, it was speculated that its mode-of-action could be via one the known DNA excision repair pathways. Thus, a panel of 20 DNA repair-deficient cell lines was prepared using CRISPR-Cas9, representing all DNA repair pathways. Pol kappa (POLK) was selected to represent translesion synthesis (TLS) polymerases since it has roles in the repair synthesis step of NER. Subsequently, these cell lines (as well as two wildtype controls) were treated with acetohexamide and exposed to UV irradiation (FIG. 3A). […]
The DNA repair knockout cell lines were generated in collaboration with Horizon Genomics. […] Subsequently, the genomic DNA was isolated using Direct PCR-Cell Kit (PeqLab) and the region targeted by the gRNA was PCR amplified and analyzed by Sanger sequencing. […]

[2] = tested on: MUTYH-deficient (ΔMUTYH) cells; experiment: Survival of MUTYH-deficient cells after UV irradiation; settings: pre-incubation with 0.5 mM acetohexamide; 3 days (FIG. 3B)
From the text: as §1, with “D. Clonogenic survival of WT, ΔXPA or ΔXPA-MUTYH cells irradiated with UV at the indicated doses or left untreated. Cells were fixed and stained 10 days later.” left out
For UV irradiation, cells were washed with PBS, trypsinized, counted and distributed in equal number then irradiated with different doses of UV as indicated. […] After 72 hours, survival was measured using Cell Titer-Glo (Promega). […]

[3] = tested on: CPDs in genomic DNA of HAP1 cell lines; experiment: Dot blot for cyclobutane pyrimidine dimers; settings: HAP1 WT and ΔXPA, 0.5 mM, 15 J/M^2 (FIG. 7C-D)
Method: A. Dose-response curve of WT and ΔXPA cells treated with or without 0.5 mM acetohexamide for the indicated times, followed by UV irradiation. Survival was assessed after 3 days, using CellTiter-Glo. […] Error bars indicate SEM (n=3). B. Clonogenic survival of WT and ΔXPA cells treated with 0.5 mM acetohexamide for 6 hours or left untreated, then exposed to illudin S for 10 days, as indicated. C. WT and ΔXPA cells treated with or without 0.5 mM acetohexamide for the indicated times, followed by 15 J/M^2 irradiation and analyzed by dot blot for the presence of CPDs in genomic DNA. DNA was counterstained with methylene blue (MB) as a loading control. D. Quantification of the intensities of C.
The amount of cyclobutane pyrimidine dimers (CPDs) in DNA was quantified using an immuno-dot blot assay with the CPD-specific monoclonal antibody TDM-2 (Cosmo Bio). Genomic DNA was extracted using QIAamp DNA mini kit (Qiagen), then the genomic DNA was denatured in TE buffer (10 mM Tris-CL and 1 mM EDTA, pH 7.5) by boiling for 5 minutes and subsequently 50 ng of genomic DNA was dot-blotted in triplicate onto a nitrocellulose membrane. The DNA was then fixed by baking the membrane for 2 hours at 80° C. […] Signals were detected using Amersham ECL (GE Healthcare Life Sciences DNA was counterstained with methylene blue as a loading control.

WT and ΔXPA cells = experiment: Survival after illudin S treatment; settings: 0.5 mM acetohexamide for 6 hours, then illudin S (FIG. 2A, 7B)
Method: A. Dose-response curve of WT and ΔXPA cells treated with or without 0.5 mM acetohexamide for 6 hours, followed by illudin S treatment. Survival was assessed after 3 days using CellTiter-Glo. B. Colony formation of WT fibroblasts (BJ) and XPA-patient derived fibroblasts (XPA^Δ/Δ) treated with or without 0.5 mM acetohexamide for 6 hours, followed by UV irradiation (as indicated) and then kept in culture for 10 days. C. WT BJ and XPA^Δ/Δ fibroblastoid cells were treated with 0.5 mM acetohexamide for 6 hours, irradiated with 15 J/M^2 and then fixed and immunostained with an anti-cyclobutane pyrimidine dimer (CPD) antibody at the indicated times. Nuclear DNA was counterstained with DAPI. Scale bar, 10 μm. D. Scatter plot displaying the quantification of CPD intensities per nucleus of WT and XPA^Δ/Δ cells in the presence or absence of 0.5 mM acetohexamide, of more than 100 cells. Red lines within each column represent median intensities. A.u.=arbitrary unit.
A. Dose-response curve of WT and ΔXPA cells treated with or without 0.5 mM acetohexamide for the indicated times, followed by UV irradiation. Survival was assessed after 3 days, using CellTiter-Glo. […] WT and ΔXPA cells treated with or without 0.5 mM acetohexamide for the indicated times, followed by 15 J/M^2 irradiation and analyzed by dot blot for the presence of CPDs in genomic DNA. […] D. Quantification of the intensities of C. […]

With `CC(=O)c1ccc(S(=O)(=O)NC(=O)NC2CCCCC2)cc1` [acetohexamide] the “protective effect against UV-induced damage (percentage of rescue), knockout cell lines and wildtype” value ([1]; all knockout lines other than ΔMUTYH (FIG. 3A)) was “comparable protective effect against UV-induced damage on all the knockout cell lines tested (and also to wildtype cells)”, the “protective effect on NER-deficient cell lines” value ([1]; knock out cell lines absent of XPA, XPC, ERCC8 (CSA), ERCC6 (CSB) or XPV (POLH)) was “general protective effect on NER-deficient cell lines” and the “protective effect against UV-induced damage (percentage of rescue), cells lacking MUTYH” value ([1]; ΔMUTYH (FIG. 3A)) was “no effect on cells lacking MUTYH”. The “survival of ΔMUTYH cells after UV” value [2] was “did not have a noticeable effect on survival”, the “clearance of CPDs, dot blot” value [3] was “same observation was also made for HAP1 cell lines” and the “cellular survival following illudin S treatment” value (WT and ΔXPA cells) was “could increase cellular survival following illudin S treatment”.
